Ends that are not written are not given here.
What was measured:
Assay type in all cases: in vivo
Tau-P301L dementia mice [1] = test: Western blotting of brain tissues for tau proteins (tauopathy-alleviating effect); conditions: brain tissue
Protocol: (§1) JNPL3 mice expressing Tau-P301L mutant gene were purchased from Taconic, and back-crossed with C57bl/6 mice for five generations in the experimental animal room of the Asan Institute for Life Sciences. Then, the mice were raised under a specific pathogen free (SPE) condition. For active immunization, the mice were administered, for six months starting from three months after birth at intervals of two weeks, two weeks, four weeks, four weeks, five weeks, four weeks, and one week in this order, the four modified tau protein fragments prepared in Preparation Example 1 together with keyhole limpet hemocyanin (KLH) as a carrier and an aluminum adjuvant. At this time, administration was carried out through intraperitoneal injection (IP injection). The dementia mice which were actively immunized by administration of the K280-ac fragment were designated as Tau-P301L-K280-ac.
(§2) In order to identify a tauopathy-alleviating effect following administration of the K280-ac fragment, brain tissues of the Tau-P301L-K280-ac dementia mice, the P301L-K280-ac dementia mice, and the normal mice produced in Preparation Example 2 were extracted, and western blotting and immunohistochemical staining were performed.

Tau-P301L dementia mice [2] = test: MR spectroscopy (MRS) of the hippocampus; conditions: hippocampus ROI; dementia mice about 50% decrease versus normal mice
Protocol: as §1
In order to identify a metabolic imaging index-improving effect following administration of the K280-ac fragment, MR spectroscopy (MRS) was performed on the Tau-P301L-K280-ac dementia mice, the P301L-K280-ac dementia mice, and the normal mice produced in Preparation Example 2. The hippocampus was designated as a region of interest (ROI) (FIG. 36).

Tau-P301L dementia mice [3] = test: Forced swimming test; conditions: second day, 5 minutes
Protocol: as §1
A forced swimming test was conducted to identify a depression-ameliorating effect in the Tau-P301L dementia mice produced in Preparation Example 2. The experiment was conducted for a total of 2 days. […] An index to swim in water (Swimming/S), an index to climb up along the beaker wall (Climbing/C), and an index to float in water without any movement (Immobility/I) were respectively analyzed.

Tau-P301L dementia mice [4] = test: Immunohistochemical staining of brain tissues for tau proteins; conditions: brain tissue
Protocol: as §1, §2

Tau-P301L dementia mice [5] = test: Vertical grid test; conditions: normal mice 10 or shorter, Tau-P301L 5 or shorter
Protocol: as §1
A vertical grid test was performed on the mice raised in Preparation Example 2. […] Specifically, the mice were placed on the vertical grid device, and allowed to go up and down the vertical grid. The time until the mice dropped down from the grid was measured.

Tau-P301L dementia mice [6] = test: Fear conditioning experiment; conditions: actively immunized Tau-P301L dementia mice; normal mice about 150, Tau-P301L 100 or shorter
Protocol: as §1
A fear conditioning experiment was performed on the mice raised in Preparation Example 2. […]
On the day before the fear conditioning experiment, the mice were allowed to become accustomed to a training situation by being placed in the training situation for 10 minutes. […] All tests were recorded on Limelight (Actimetrics) and a computer.
On the next day, the mice were placed again in the experimental cage for 10 minutes and a baseline freezing time was measured while the beep sound was heard. […]

[7] = Antibody production after primary and secondary boosting (vaccine comparison); conditions: compared with N-terminal fragment of tau protein
Protocol: In addition, in order to identify whether the K280-ac fragment is effective as a vaccine, the N-terminal fragment and the K280-ac fragment of the tau protein having the amino acid sequence represented by SEQ ID NO: 31 were administered, and primary boosting and secondary boosting were performed. Then, these fragments were compared in terms of antibody production.

Tau-P301L dementia mice [8] = test: Novel object recognition experiment; conditions: Tau-P301L 50% decrease versus normal mice
Protocol: as §1
In addition, a memory experiment was performed with novel object recognition. […] Two identical objects were placed in the white box, and then the time spent staying around each object was measured while allowing the mice to make exploration for 5 minutes. 4 hours later, one of the objects installed was replaced with another model, and movement of the mice and the time spent staying around the object were measured for 5 minutes.

Tau-P301L dementia mice [9] = test: Grip strength test
Protocol: as §1
A grip strength test was performed to identify muscle strength of the mice. […] At this time, an iron bundle that weighs 40 g was used for the iron bundle. The mice produced in Preparation Example 2 were held by the tail end, and the forefeet of the mice were caused to be placed on the 40 g iron bundle so that the mice can grab the iron bundle. […] The time until the mice missed the iron bundle was measured and comparison was made for the respective mice.

Tau-P301L dementia mice [10] = test: qPCR of brain tissues for inflammation-related genes; conditions: brain tissue, compared with non-immunized dementia mice
Protocol: as §1
In order to identify an inflammation-improving effect following administration of the K280-ac fragment, brain tissues of the Tau-P301L-K280-ac dementia mice, the P301L-K280-ac dementia mice, and the normal mice produced in Preparation Example 2 were extracted, and qPCR was performed for inflammation-related genes.

Tau-P301L dementia mice [11] = test: Western blotting of cerebral cortex fractions (tau aggregation-mitigating effect); conditions: cerebral cortex fractions (soluble or insoluble)
Protocol: as §1
In order to identify a tau aggregation-mitigating effect following administration of the K280-ac fragment, western blotting was performed with the cerebral cortices of the Tau-P301L-K280-ac dementia mice, the P301L-K280-ac dementia mice, and the normal mice produced in Preparation Example 2.

With “Val-Gln-Ile-Ile-Asn-Lys-Lys-Leu-Asp-Leu-Ser-Asn (VQIINK(Ac)KLDLSN) [K280-ac]” the acetylated tau proteins (Tau-P301L dementia mice [1]) was “decrease”, the phosphorylated tau proteins (Tau-P301L dementia mice [1]) was “decrease” and the “tau proteins in which lysine, the 280th amino acid, is acetylated” value (Tau-P301L dementia mice [1]; Tau-P301L 2-fold increase versus normal mice) was “decreased level of tau proteins which corresponds to that in the normal mice”. The “N-acetyl-aspartyl-glutamic acid (NAAG)” value (Tau-P301L dementia mice [2]) was “restored”, the “depression-ameliorating effect (immobility, swimming, climbing)” value (Tau-P301L dementia mice [3]) was “depression-ameliorating effect is exhibited” and the acetylated tau proteins (Tau-P301L dementia mice [4]) was “decreased”. For the same substance, the phosphorylated tau proteins (Tau-P301L dementia mice [4]) was “decreased”, the “measured time on the vertical grid” value (Tau-P301L dementia mice [5]) was 10 s and the freezing time (Tau-P301L dementia mice [6]) was “about 150 seconds”. For the same substance, the antibody production [7] was “higher antibody production than the N-terminal fragment”, the “time spent staying around the novel object” value (Tau-P301L dementia mice [8]) was “increased to a level which corresponds to that in the normal mice” and the “measured time for grab strength” value (Tau-P301L dementia mice [9]; 40 g iron bundle, normal mice 10 or shorter, Tau-P301L 5 or shorter) was “about 12 seconds”. The “grip strength, change versus controls” value (Tau-P301L dementia mice [9]; actively immunized Tau-P301L dementia mice) was “restored to that of the normal mice”, the IFN-γ gene (Tau-P301L dementia mice [10]) was “decrease” and the IL-4 gene (Tau-P301L dementia mice [10]) was “decrease”. The IL-12 gene (Tau-P301L dementia mice [10]) was “increase”, the IL-22 gene (Tau-P301L dementia mice [10]) was “decrease” and the acetylated tau proteins (Tau-P301L dementia mice [11]) was “decreased”. The entire tau protein (Tau-P301L dementia mice [11]) was “decreased” and the phosphorylated tau proteins (Tau-P301L dementia mice [11]) was “decreased”.

— patent US11001615B2, “Mutated tau protein fragment and use thereof” (ADEL INC., priority 2016, dated 2021)
